Test results reported in patent EP0182317A2, “Antineoplastic agent” (priority 1984, dated 1986).

Columns and labels:
[1] = system: Ehrlich carcinoma; test: Antineoplastic effect on Ehrlich carcinoma in mice (survival, T/C percent); assay type: in vivo, male ICR mouse; conditions: in the abdomen once a day for 7 days; for response vs control in vivo at 2 mg/kg / response vs control in vivo at 4 mg/kg / response vs control in vivo at 8 mg/kg / response vs control in vivo at 16 mg/kg / response vs control in vivo at 32 mg/kg / response vs control in vivo at 1 mg/kg: Mus musculus, Ehrlich, ip, 720 h
Procedure: Antineoplastic effect on Ehrlich carcinoma:
(§1) About 10^6/0.2 ml of Ehrlich carcinoma cells were placed in an abdomen of each male ICR mouse of 5 weeks old. On the next day the administration of the test sample in the abdomen was started. The test sample was given once a day for 7 days. For an untreated group, a physiological saline solution was given in the same manner as above. […] The T/C percent (T/C x 100) was determined from the average survival periods (days) of the treated group and control group. Further, 50 % lethal dose (LD50) was determined from the number of the mice which died of toxicity of the test samples administered.

[2] = 50 % lethal dose from toxic deaths in the Ehrlich carcinoma experiment; assay type: in vivo, male ICR mouse; conditions: mice bearing Ehrlich carcinoma, in the abdomen once a day for 7 days; for LD50 at 720 h: mouse, in vivo, ip; for LD50: 43200 min
Procedure: as §1

[3] = system: Salmonella typhimurium TA-98; test: Antimutagenic properties by Ames method with benzo[a]pyrene as mutagen; assay type: cell-based; conditions: for Number of colonies: B(a)P, S-9 mix; for inhibition rate: inhibition of the mutagenic effect of B(a)P
Procedure: The experiment was carried out by Ames method using Salmonella typhimurium TA-98 (hereinafter referred to as TA-98) as the test microorganism and benzo[a]pyrene (hereinafter referred to as B(a)P) as the mutagen.
0.1 ml of a solution containing […] of B(a)P and a suitable amount of a compound of the present invention was added to 0.5 ml of S-9 mix and 0.1 ml of a TA-98 suspension. The mixture was incubated at 37°C for 20 min. 2 ml of soft agar was added thereto, mixed well and then spread evenly on a glucose minimum agar medium plate. After the incubation at 37°C for 48 h, the number of colonies formed by the back mutation was counted.
The number of the colonies formed when neither B(a)P nor the compound of the present invention was used was employed as the background.
The antimutagenic properties was shown as the rate of inhibition of the mutagenic effect according to the following formula: [formula]

[4] = dose 1.0 mg/kg, observation period 60 days
[5] = dose 2.0 mg/kg, observation period 60 days
[6] = dose 4.0 mg/kg, observation period 60 days
[7] = dose 8.0 mg/kg, observation period 60 days
[8] = dose 2.0 mg/kg, observation period 30 days
[9] = dose 4.0 mg/kg, observation period 30 days
[10] = dose 8.0 mg/kg, observation period 30 days

Row | Molecule | Antineoplastic effect (T/C percent) [1, 5] [%] | Antineoplastic effect (T/C percent) [1, 6] [%] | Antineoplastic effect (T/C percent) [1, 7] [%] | LD50 at 720 h [2] [mg/kg] | response vs control in vivo at 2 mg/kg [1, 5] [%] | response vs control in vivo at 4 mg/kg [1, 6] [%] | response vs control in vivo at 8 mg/kg [1, 7] [%] | response vs control in vivo at 16 mg/kg ([1]; observation period 60 days) [%] | LD50 [2] | other results
1 | 2,2-dimethyl-1,3-propanediol selenite [Compound 18] | 193 | 194 | 194 | – | – | – | – | – | – | Antineoplastic effect (T/C percent) [1, 4]: 164%
2 | 2,3-butanediol selenite [Compound 16] | 216 | 261 | 174 | – | – | – | – | – | – | Antineoplastic effect (T/C percent) [1, 4]: 185%
3 | O=[Se](O)c1ccccc1 [Compound 1, phenylseleninic acid] | – | – | – | > 16 | 123 | 129 | 141 | 149 | – | response vs control in vivo at 2 mg/kg [1, 8]: 123%; response vs control in vivo at 4 mg/kg [1, 9]: 129%; response vs control in vivo at 8 mg/kg [1, 10]: 141%; response vs control in vivo at 16 mg/kg ([1]; observation period 30 days): 149%
4 | CCO[Se](=O)c1ccccc1 (stereo not shown) [Compound 2, ethyl phenylseleninate] | – | – | – | 16 to 32 | – | 118 | 134 | 193 | – | response vs control in vivo at 4 mg/kg [1, 9]: 118%; response vs control in vivo at 8 mg/kg [1, 10]: 134%; response vs control in vivo at 32 mg/kg ([1]; observation period 30 days): 87.9%; response vs control in vivo at 32 mg/kg ([1]; observation period 60 days): 88%; response vs control in vivo at 16 mg/kg ([1]; observation period 30 days): 150%
5 | CCO[Se](=O)OCC [Compound 9, diethyl selenite] | – | – | – | 4 to 8 | 246 | 203 | 201 | 14 | – | –
6 | CCCO[Se](=O)OCCC [Compound 10, di(n-propyl) selenite] | – | – | – | 8 | 175 | 170 | 102 | 14 | – | –
7 | CC(C)O[Se](=O)OC(C)C [Compound 11, diisopropyl selenite] | – | – | – | 4 to 8 | 204 | 236 | 126 | 14 | – | –
8 | O=[Se](OCCCl)OCCCl [Compound 12, di(2-chloroethyl) selenite] | – | – | – | 8 | 197 | 225 | 194 | 65 | – | –
9 | CC(Cl)CO[Se](=O)OCC(C)Cl (stereo not shown) [Compound 13, di(2-chloropropyl) selenite] | – | – | – | 8 to 16 | 190 | 234 | 219 | 71 | – | –
10 | O=[Se]1OCCO1 [Compound 14, 1,2-ethanediol selenite] | – | – | – | 4 to 8 | 193 | 266 | 108 | 34 | – | Number of colonies ([3]; dose 0.5 µg/plate): 231; inhibition rate ([3]; dose 0.5 µg/plate): 23.1%; Number of colonies ([3]; dose 1 µg/plate): 235; inhibition rate ([3]; dose 1 µg/plate): 21.6%; Number of colonies ([3]; dose 5 µg/plate): 156; inhibition rate ([3]; dose 5 µg/plate): 51.1%; Number of colonies ([3]; dose 10 µg/plate): 145; inhibition rate ([3]; dose 10 µg/plate): 55.2%; Number of colonies ([3]; dose 50 µg/plate): 76; inhibition rate ([3]; dose 50 µg/plate): 81.0%; Number of colonies ([3]; dose 100 µg/plate): 62; inhibition rate ([3]; dose 100 µg/plate): 86.2%; Number of colonies ([3]; dose 500 µg/plate): 32; inhibition rate ([3]; dose 500 µg/plate): 97.4%
11 | CC1CO[Se](=O)O1 (stereo not shown) [Compound 15, 1,2-propanediol selenite] | – | – | – | 8 | 258 | 204 | 105 | – | – | response vs control in vivo at 1 mg/kg [1, 4]: 227%
12 | O=[Se]1OCCCO1 [Compound 17, 1,3-propanediol selenite] | – | – | – | 4 to 8 | 221 | 197 | 83 | – | – | response vs control in vivo at 1 mg/kg [1, 4]: 174%
13 | selenium oxybromide·dioxane complex [Compound 8] | 182 | 226 | 228 | – | – | – | – | – | 8 - 16 mg/kg/day x7 | –
14 | selenium oxychloride [Compound 3] | – | – | – | – | – | – | – | – | 6 mg/kg/day x7 | Number of colonies ([3]; dose 0.5 µg/plate): 205; inhibition rate ([3]; dose 0.5 µg/plate): 30.3%; Number of colonies ([3]; dose 1 µg/plate): 230; inhibition rate ([3]; dose 1 µg/plate): 22.0%; Number of colonies ([3]; dose 5 µg/plate): 154; inhibition rate ([3]; dose 5 µg/plate): 52.0%; Number of colonies ([3]; dose 10 µg/plate): 132; inhibition rate ([3]; dose 10 µg/plate): 60.6%; Number of colonies ([3]; dose 50 µg/plate): 72; inhibition rate ([3]; dose 50 µg/plate): 84.3%; Number of colonies ([3]; dose 100 µg/plate): 70; inhibition rate ([3]; dose 100 µg/plate): 85.6%; Number of colonies ([3]; dose 500 µg/plate): 27; inhibition rate ([3]; dose 500 µg/plate): 100%; Antineoplastic effect (T/C percent) ([1]; dose 0.75 mg/kg, observation period 60 days): 141%; Antineoplastic effect (T/C percent) ([1]; dose 1.5 mg/kg, observation period 60 days): 222%; Antineoplastic effect (T/C percent) ([1]; dose 3.0 mg/kg, observation period 60 days): 168%; Antineoplastic effect (T/C percent) ([1]; dose 6.0 mg/kg, observation period 60 days): 105%
15 | selenium oxychloride·dioxane complex [Compound 7] | 211 | 225 | 194 | – | – | – | – | – | 8 - 16 mg/kg/day x7 | –
16 | selenium oxychloride·isoquinoline complex [Compound 6] | 211 | 206 | 187 | – | – | – | – | – | – | Antineoplastic effect (T/C percent) [1, 8]: 158.5%; Antineoplastic effect (T/C percent) [1, 9]: 164.8%; Antineoplastic effect (T/C percent) [1, 10]: 162.9%
17 | selenium oxychloride·quinoline complex [Compound 5] | 131 | 199 | 269 | – | – | – | – | – | >16 mg/kg/day x7 | Antineoplastic effect (T/C percent) [1, 8]: 131.4%; Antineoplastic effect (T/C percent) [1, 9]: 156.0%; Antineoplastic effect (T/C percent) [1, 10]: 181.8%
18 | selenium tetrabromide [Compound 20] | 196 | 272 | 183 | – | – | – | – | – | 8-16 mg/kg/day x7 | –
19 | selenium tetrachloride [Compound 19] | 179 | 249 | 183 | – | – | – | – | – | >16 mg/kg/day x7 | Antineoplastic effect (T/C percent) [1, 4]: 167%
20 | selenium tetrachloride·pyridine complex [Compound 21] | 155 | 217 | 246 | – | – | – | – | – | 8-16 mg/kg/day x7 | –
